Each compound was assayed against T1, CD73 (Homo sapiens, UniProt P21589) (assay: CD73 biochemical assay, Malachite Green detection of AMP hydrolysis). Settings: CD73 320 pM, AMP 15 μM, Malachite Green readout.
T1 sequence (P21589 27-549): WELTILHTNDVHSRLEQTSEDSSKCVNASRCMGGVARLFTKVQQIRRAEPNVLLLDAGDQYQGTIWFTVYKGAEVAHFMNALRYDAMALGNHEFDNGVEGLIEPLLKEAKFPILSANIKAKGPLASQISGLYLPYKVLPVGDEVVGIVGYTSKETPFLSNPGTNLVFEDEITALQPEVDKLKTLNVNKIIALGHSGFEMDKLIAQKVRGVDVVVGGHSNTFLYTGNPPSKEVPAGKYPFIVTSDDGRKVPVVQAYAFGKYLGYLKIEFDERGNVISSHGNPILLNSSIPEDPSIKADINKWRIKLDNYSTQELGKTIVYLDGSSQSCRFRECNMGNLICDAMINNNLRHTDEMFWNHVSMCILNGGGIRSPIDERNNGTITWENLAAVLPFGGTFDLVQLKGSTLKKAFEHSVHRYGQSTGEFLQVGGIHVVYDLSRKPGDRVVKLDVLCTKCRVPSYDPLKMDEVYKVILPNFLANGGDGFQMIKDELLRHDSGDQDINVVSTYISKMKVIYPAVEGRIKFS
Experimental: Assay Reaction Conditions
• Assay Volume: 70 μl • Reaction Volume: 50 μl • CD73: 0.3208 nM • AMP: 15 μM • Assay Buffer: 2 5 mM Tris-HCL, pH 7.4, 0.01% Brij-35, 0.01% BSA, 5 mM MgCl2 Assay Procedure:
A clear 384 well plate was used in this assay.
Made dose titration of testing compounds in assay buffer, 10 points ½ log titrations in duplicates starting at 100 μM. Total volume for each well was 25 μl, with CD73 then added to each well for a final concentration of 320 pM. The solution was then incubated at RT for 15 min. 25 μl of AMP was added to each well for a final concentration of 15 μM, and then incubated at rt for 10 min. 10 μl of Malachite Green Reagent A was then added and allowed to incubate at rt for 10 min. 10 μl of Malachite Green Reagent B was then added and allowed to incubate at rt for 45 min. The absorbance for each sample was read on an Envision plate reader using excitation filter: Cy5 […].
The ability of the compounds disclosed herein to inhibit CD73 activity was quantified and the respective IC50 values were determined. Table 2 provides the biochemical IC50 values of compounds disclosed herein.

Compound | IC50
COC[C@@](OC[C@H]1O[C@@H](c2ccc3c(NC4CCCC4)nc(Cl)nn23)[C@H](O)[C@@H]1O)(C(=O)O)P(=O)(O)O [Example 42, (S)-2-(((2R,3 S,4R,5S)-5-(2-chloro-4-(cyclopentylamino)pyrrolo[2,1-f][1,2,4]triazin-7-yl)-3,4-dihydroxytetrahydrofuran-2-yl)methoxy)-3-methoxy-2-phosphonopropanoic acid] | ≤ 0.5 nM
O=P(O)(O)C(CO)(COCc1nnn[nH]1)OC[C@H]1O[C@H](c2cnn3c(NC4CCCC4)cc(Cl)nc23)[C@H](O)[C@@H]1O (stereo partly drawn) [Example 43, (1-((1H-tetrazol-5-yl)methoxy)-2-(((2R,3S,4R,5R)-5-(5-chloro-7-(cyclopentylamino)pyrazolo[1,5-a]pyrimidin-3-yl)-3,4-dihydroxytetrahydrofuran-2-yl)methoxy)-3-hydroxypropan-2-yl)phosphonic acid] | 1 to 100 nM
O=c1[nH]c(COC[C@@](CO)(OC[C@H]2O[C@@H](c3ccc4c(NCC5CC5)nc(Cl)nn34)[C@H](O)[C@@H]2O)P(=O)(O)O)no1 [Example 44, ((S)-2-(((2R,3S,4R,5S)-5-(2-chloro-4-((cyclopropylmethyl)amino)pyrrolo[2,1-f][1,2,4]triazin-7-yl)-3,4-dihydroxytetrahydrofuran-2-yl)methoxy)-1-hydroxy-3-((5-oxo-4,5-dihydro-1,2,4-oxadiazol-3-yl)methoxy)propan-2-yl)phosphonic acid] | ≤ 0.5 nM
COC[C@](CC(=O)O)(OC[C@H]1O[C@@H](c2ccc3c(NC4CCCC4)nc(Cl)nn23)[C@H](O)[C@@H]1O)P(=O)(O)O [Example 45, (R)-3-(((2R,3S,4R,5S)-5-(2-Chloro-4-(Cyclopentylamino)pyrrolo[2,1-f][1,2,4]triazin-7-yl)-3,4-dihydroxytetrahydrofuran-2-yl)methoxy)-4-methoxy-3-phosphonobutanoic acid] | ≤ 0.5 nM
O=P(O)(O)[C@@](CO)(COCc1nn[nH]n1)OC[C@H]1O[C@@H](c2ccc3c(NCC4CCCC4)nc(Cl)nn23)[C@H](O)[C@@H]1O [Example 46, ((S)-1-((2H-tetrazol-5-yl)methoxy)-2-(((2R,3S,4R,5S)-5-(2-chloro-4-((cyclopentylmethyl)amino)pyrrolo[2,1-f][1,2,4]triazin-7-yl)-3,4-dihydroxytetrahydrofuran-2-yl)methoxy)-3-hydroxypropan-2-yl)phosphonic acid] | ≤ 0.5 nM
COC[C@](OC[C@H]1O[C@@H](c2ccc3c(NC4CCCC4)nc(Cl)nn23)[C@H](O)[C@@H]1O)(C(=O)O)P(=O)(O)O [Example 47, (R)-2-(((2R,3S,4R,5S)-5-(2-chloro-4-(cyclopentylamino)pyrrolo[2,1-f][1,2,4]triazin-7-yl)-3,4-dihydroxytetrahydrofuran-2-yl)methoxy)-3-methoxy-2-phosphonopropanoic acid] | 1 to 100 nM
O=P(O)(O)[C@](CO)(COCc1nn[nH]n1)OC[C@H]1O[C@@H](c2ccc3c(NCC4CCCC4)nc(Cl)nn23)[C@H](O)[C@@H]1O [Example 48, ((R)-1-((2H-tetrazol-5-yl)methoxy)-2-(((2R,3S,4R,5S)-5-(2-chloro-4-((cyclopentylmethyl)amino)pyrrolo[2,1-f][1,2,4]triazin-7-yl)-3,4-dihydroxytetrahydrofuran-2-yl)methoxy)-3-hydroxypropan-2-yl)phosphonic acid] | 1 to 100 nM
O=P(O)(O)[C@@](CO)(COCc1nn[nH]n1)OC[C@H]1O[C@@H](c2ccc3c(NCC4CC4)nc(Cl)nn23)[C@H](O)[C@@H]1O [Example 49, ((S)-1-((2H-tetrazol-5-yl)methoxy)-2-(((2R,3S,4R,5S)-5-(2-chloro-4-((cyclopropylmethyl)amino)pyrrolo[2,1-f][1,2,4]triazin-7-yl)-3,4-dihydroxytetrahydrofuran-2-yl)methoxy)-3-hydroxypropan-2-yl)phosphonic acid] | ≤ 0.5 nM
O=P(O)(O)[C@](CO)(COCc1nn[nH]n1)OC[C@H]1O[C@@H](c2ccc3c(NC4CCC4)nc(Cl)nn23)[C@H](O)[C@@H]1O [Example 50, ((R)-1-((2H-tetrazol-5-yl)methoxy)-2-(((2R,3S,4R,5S)-5-(2-chloro-4-(cyclobutylamino)pyrrolo[2,1-f][1,2,4]triazin-7-yl)-3,4-dihydroxytetrahydrofuran-2-yl)methoxy)-3-hydroxypropan-2-yl)phosphonic acid] | 0.5 to 1 nM
O=P(O)(O)[C@@](CO)(COCc1nn[nH]n1)OC[C@H]1O[C@@H](c2ccc3c(NCC4CCC4)nc(Cl)nn23)[C@H](O)[C@@H]1O [Example 52, ((S)-1-((2H-tetrazol-5-yl)methoxy)-2-(((2R,3S,4R,5S)-5-(2-chloro-4-((cyclobutylmethyl)amino)pyrrolo[2,1-f][1,2,4]triazin-7-yl)-3,4-dihydroxytetrahydrofuran-2-yl)methoxy)-3-hydroxypropan-2-yl)phosphonic acid] | ≤ 0.5 nM
O=P(O)(O)[C@](CO)(COCc1nn[nH]n1)OC[C@H]1O[C@@H](c2ccc3c(NCC4CCC4)nc(Cl)nn23)[C@H](O)[C@@H]1O [Example 53, ((R)-1-((2H-tetrazol-5-yl)methoxy)-2-(((2R,3S,4R,5S)-5-(2-chloro-4-((cyclobutylmethyl)amino)pyrrolo[2,1-f][1,2,4]triazin-7-yl)-3,4-dihydroxytetrahydrofuran-2-yl)methoxy)-3-hydroxypropan-2-yl)phosphonic acid] | 1 to 100 nM
O=P(O)(O)[C@](CO)(COCc1nn[nH]n1)OC[C@H]1O[C@@H](c2ccc3c(NCC4CC4)nc(Cl)nn23)[C@H](O)[C@@H]1O [Example 54, ((R)-1-((2H-tetrazol-5-yl)methoxy)-2-(((2R,3S,4R,5S)-5-(2-chloro-4-((cyclopropylmethyl)amino)pyrrolo[2,1-f][1,2,4]triazin-7-yl)-3,4-dihydroxytetrahydrofuran-2-yl)methoxy)-3-hydroxypropan-2-yl)phosphonic acid] | 1 to 100 nM
[2H]C([2H])([2H])OC[C@](COCc1nn[nH]n1)(OC[C@H]1O[C@@H](c2ccc3c(NC4CCCC4)nc(Cl)nn23)[C@H](O)[C@@H]1O)P(=O)(O)O [Example 55, ((S)-1-((2H-tetrazol-5-yl)methoxy)-2-(((2R,3S,4R,5S)-5-(2-chloro-4-(cyclopentylamino)pyrrolo[2,1-f][1,2,4]triazin-7-yl)-3,4-dihydroxytetrahydrofuran-2-yl)methoxy)-3-(methoxy-d3)propan-2-yl)phosphonic acid] | ≤ 0.5 nM
COCC(CO)(OC[C@H]1O[C@@H](c2cnn3c(NC4CCCC4)cc(Cl)nc23)[C@H](O)[C@@H]1O)P(=O)(O)O (stereo partly drawn) [Example 56, (2-(((2R,3S,4R,5S)-5-(5-chloro-7-(cyclopentylamino)pyrazolo[1,5-a]pyrimidin-3-yl)-3,4-dihydroxytetrahydrofuran-2-yl)methoxy)-1-hydroxy-3-methoxypropan-2-yl)phosphonic acid] | 1 to 100 nM
COCC(COCc1nn[nH]n1)(OC[C@H]1O[C@@H](c2cnn3c(NC4CCCC4)cc(Cl)nc23)[C@H](O)[C@@H]1O)P(=O)(O)O (stereo partly drawn) [Example 57, (1-((2H-tetrazol-5-yl)methoxy)-2-(((2R,3S,4R,5S)-5-(5-chloro-7-(cyclopentylamino)pyrazolo[1,5-a]pyrimidin-3-yl)-3,4-dihydroxytetrahydrofuran-2-yl)methoxy)-3-methoxypropan-2-yl)phosphonic acid] | ≤ 0.5 nM
